{"source": "patent US20070281011A1", "about": "“Nanoparticulate posaconazole formulations” (Elan Pharma International Ltd., priority 2006, published 2007)", "origin": "cited, not measured here", "key": {"[1]": {"tested_on": "cytochrome P450 14a-demethylase (P45014DM)", "settings": "particularly in Aspergillus"}, "[2]": {"settings": "meal containing fat calories; regardless of formulation (tablet versus suspension)"}}, "data": [{"smiles": "CC[C@@H]([C@H](C)O)n1ncn(-c2ccc(N3CCN(c4ccc(OC[C@@H]5CO[C@@](Cn6cncn6)(c6ccc(F)cc6F)C5)cc4)CC3)cc2)c1=O", "note": "[Posaconazole]", "values": [{"measurement": "inhibition of sterol C14 demethylation compared to itraconazole", "setting": "[1]", "result": "significantly more potent inhibitor"}, {"measurement": "increase of relative oral bioavailability", "setting": "[2]", "result": "approximately 400%"}, {"measurement": "aqueous solubility", "result": "< 1", "unit": "µg/mL"}]}]}
